Results as given in patent publication US20210127671A1, “HYPERSENSITIVE RESPONSE ELICITOR PEPTIDES AND USE THEREOF” (priority 2015, published 2021).
Peptide text beside a SMILES is read from it.

Assay: Stability against chemical degradation in water or pH buffers at 50° C. (HPLC)
Details: for % remaining after 14 days incubation: 50 mM TES, pH 8.0, 50° C.; for stability after 14 days: 50 mM EDTA, pH 8 (FIG. 24), 50° C.
Protocol: Briefly, the stability and resistance to chemical degradation of peptides can be assessed as follows using peptide samples having an initial purity of at least about 80%, at least about 82%, at least about 84%, at least about 86%, at least about 88%, at least about 90%, at least about 92%, at least about 94%, at least about 96%, or at least about 98%. For water stability, the peptide is dissolved directly in de-ionized water. For chemical degradation tests, the peptide is dissolved in an aqueous solution containing 50 mM pH buffer and 0.25% Proxel GXL. Exemplary pH buffers include, without limitation: (i) Citrate pH 5.6; (ii) MES pH 6.2; (iii) MOPS pH 6.5; (iv) imidazole pH 7.0; (v) Citrate pH 7.2; (vi) EDDS, pH 7.3; (vii) EDTA pH 8.0; (viii) sodium phosphate pH 8.0; or (ix) TES pH 8.0. Peptides are first dissolved in the aqueous solution at a concentration of 0.5 mg/ml. […] An initial sample of the peptide is removed, diluted 10× with water, and analyzed by reverse-phase HPLC. Briefly, 20 μl of the sample is injected into the solvent flow of an HPLC instrument and analyzed on a C18 HPLC column (YMC ProPack C18, YMC, Japan, or C18 Stablebond, Agilent Technologies, USA) using either a triethylamine phosphate in water/acetonitrile gradient or a 0.1% TFA in water/0.1% TFA in acetonitrile gradient to separate different peptide species. Eluting peptides are monitored by UV absorbance at 218 nm and quantified based on the area under the peak. The area under the peak for the initial peptide sample is treated as the standard for relative quantification in subsequent runs. At regular intervals (e.g., 1, 3, 7, 10, 14, 17, and 21 days), each peptide sample is surveyed and analyzed by HPLC as described above.
Stability against chemical degradation was assessed in various pH buffers by creating 0.2% AI solutions of pure, chemically synthesized peptide in deionized water, 0.25% weight to volume of Proxel® GXL (biocide), and 50 millimolar (mM) of eight buffers (separately) as follows: MES pH 5.6, MOPS pH 6.5, Citrate pH 7.2, EDDS pH 7.3, EDTA pH 8, Phosphate pH 8, Imidazole pH 8, and TES pH 8.

SMILES | % remaining after 14 days incubation | stability after 14 days
CC[C@H](C)[C@H](NC(=O)CNC(=O)[C@H](CCC(N)=O)NC(=O)[C@@H](N)CC(N)=O)C(=O)N[C@@H](CO)C(=O)N[C@@H](CCC(=O)O)C(=O)N[C@@H](CCCCN)C(=O)N[C@@H](CCC(N)=O)C(=O)N[C@@H](CC(C)C)C(=O)N[C@@H](CC(=O)O)C(=O)N[C@@H](CCC(N)=O)C(=O)N[C@@H](CC(C)C)C(=O)N[C@@H](CC(C)C)C(=O)N[C@H](C(=O)N[C@@H](CCC(N)=O)C(=O)N[C@@H](CC(C)C)C(=O)N[C@H](C(=O)N[C@@H](C)C(=O)N[C@@H](C)C(=O)N[C@@H](CC(C)C)C(=O)N[C@@H](CC(C)C)C(=O)N[C@@H](CCC(N)=O)C(=O)N[C@@H](CCC(N)=O)C(=O)O)[C@@H](C)CC)[C@@H](C)O [Peptide P1-18A] (H-NQGISEKQLDQLLTQLIAALLQQ-OH; N-terminus and C-terminus assumed) | 47% | 
CC[C@H](C)[C@H](NC(=O)CNC(=O)[C@H](CCC(N)=O)NC(=O)[C@@H](N)CC(N)=O)C(=O)N[C@@H](CO)C(=O)N[C@@H](CCC(=O)O)C(=O)N[C@@H](CCCCN)C(=O)N[C@@H](CCC(N)=O)C(=O)N[C@@H](CC(C)C)C(=O)N[C@@H](CC(=O)O)C(=O)N[C@@H](CCC(N)=O)C(=O)N[C@@H](CC(C)C)C(=O)N[C@@H](CC(C)C)C(=O)N[C@H](C(=O)N[C@@H](CCC(N)=O)C(=O)N[C@@H](CC(C)C)C(=O)N[C@H](C(=O)N[C@H](C(=O)N[C@@H](C)C(=O)N[C@@H](CC(C)C)C(=O)N[C@@H](CC(C)C)C(=O)N[C@@H](CCC(N)=O)C(=O)N[C@@H](CCC(N)=O)C(=O)O)[C@@H](C)O)[C@@H](C)CC)[C@@H](C)O [Peptide P1-18T] (H-NQGISEKQLDQLLTQLITALLQQ-OH; N-terminus and C-terminus assumed) | 71% | 
CC[C@H](C)[C@H](NC(=O)[C@@H](NC(=O)[C@H](CCC(N)=O)NC(=O)[C@H](CCCNC(=N)N)NC(=O)[C@H](CC(=O)O)NC(=O)[C@@H](NC(=O)[C@@H]1CCCN1C(=O)[C@H](CCC(N)=O)NC(=O)[C@@H](N)CCC(N)=O)[C@@H](C)CC)[C@@H](C)O)C(=O)N[C@@H](CCC(=O)O)C(=O)N[C@@H](CCC(N)=O)C(=O)N[C@@H](CCSC)C(=O)N[C@@H](C)C(=O)N[C@@H](CCC(N)=O)C(=O)N[C@@H](CC(C)C)C(=O)N[C@@H](CC(C)C)C(=O)N[C@@H](C)C(=O)N[C@@H](CCC(N)=O)C(=O)N[C@@H](CC(C)C)C(=O)N[C@@H](CC(C)C)C(=O)N[C@@H](CCCCN)C(=O)N[C@@H](CO)C(=O)N[C@@H](CC(C)C)C(=O)N[C@@H](CC(C)C)C(=O)O [Peptide P18-1] (H-QQPIDRQTIEQMAQLLAQLLKSLL-OH) |  | > 90%
CC[C@H](C)[C@H](NC(=O)[C@@H](NC(=O)[C@H](CCC(N)=O)NC(=O)[C@H](CCCNC(=N)N)NC(=O)[C@@H](N)CC(=O)O)[C@@H](C)O)C(=O)N[C@@H](CCC(=O)O)C(=O)N[C@@H](CCC(N)=O)C(=O)N[C@@H](CC(C)C)C(=O)N[C@@H](C)C(=O)N[C@@H](CCC(N)=O)C(=O)N[C@@H](CC(C)C)C(=O)N[C@@H](CC(C)C)C(=O)N[C@@H](C)C(=O)N[C@@H](CCC(N)=O)C(=O)N[C@@H](CC(C)C)C(=O)N[C@@H](CC(C)C)C(=O)N[C@@H](CCCCN)C(=O)N[C@@H](CO)C(=O)N[C@@H](CC(C)C)C(=O)N[C@@H](CC(C)C)C(=O)N[C@@H](CO)C(=O)N1CCC[C@H]1C(=O)O [Peptide P18-4] (H-DRQTIEQLAQLLAQLLKSLLSP-OH) |  | 60%
